These results are taken from ChEMBL document CHEMBL5365531, “Structure-Activity Relationship Studies of SARS-CoV-2 Main Protease Inhibitors Containing 4-Fluorobenzothiazole-2-carbonyl Moieties” (J Med Chem, 2023).

Data set [1] is described as follows: Cytotoxicity against African green monkey Vero E6 cells incubated for 3 days by WST-8 assay. As to conditions: chlorocebus sabaeus, time 3 day. The data set is classed as toxicity, cell-based, Vero C1008.
Data set [2] relates to SARS-CoV-2. Nature of the data set: Antiviral activity against SARS-CoV-2 JPN/TY/WK-521 infected in Vero E6 cells preincubated with cells for 1 day followed by viral infection and measured after 3 days by qRT-PCR analysis. Type of data set: functional, organism-based. The note with it: Severe acute respiratory syndrome coronavirus 2, JPN/TY/WK-521, Vero C1008.
For data set [3], the system named is SARS-CoV-2. Nature of the data set: Antiviral activity against SARS-CoV-2 JPN/TY/WK-521 infected in Vero E6 cells assessed as fold change preincubated with cells for 1 day followed by viral infection and measured after 3 days by qRT-PCR analysis relative to 7-fluoro-N-((S)-1-(((S)-1-(4-fluorobenzo[d]thiazol-2-yl)-1-oxo-3-((S)-2-oxopyrrolidin-3-yl)propan-2-yl)amino)-3,3-dimethyl-1-oxobutan-2-yl)-4-methoxy-1H-indole-2-carboxamide. Type of data set: functional, Severe acute respiratory syndrome coronavirus 2. As to conditions: time 4 day. For orientation: In qPCR the cycle at which signal appears reflects the starting amount.

Data set [4] relates to SARS-CoV-2. Description: Antiviral activity against SARS-CoV-2 infected in Vero E6 cells assessed as fold change preincubated with cells for 1 day followed by viral infection and measured after 3 days by qRT-PCR analysis relative to YH-53. The data set is classed as functional, Severe acute respiratory syndrome coronavirus 2. The note with it: time 4 day.
Data set [5] concerns SARS-CoV-2. Description: Antiviral activity against SARS-CoV-2 infected in Vero E6 cells preincubated with cells for 1 day followed by viral infection and measured after 3 days by qRT-PCR analysis. Type of data set: functional, organism-based. The note with it: Severe acute respiratory syndrome coronavirus 2, Vero C1008.
Data set [6] concerns SARS-CoV-2. Description: Antiviral activity against SARS-CoV-2 JPN/TY/WK-521 infected in Vero E6 cells assessed as fold change preincubated with cells for 1 day followed by viral infection and measured after 3 days by qRT-PCR analysis relative to TKB245. The data set is classed as functional, Severe acute respiratory syndrome coronavirus 2. The note with it: time 4 day.
The test system of a further data set is PBMC. Description: Cytotoxicity against human PBMC cells assessed as reduction in cell viability at 3 uM incubated for 12 days by CCK-8 assay. Type of data set: toxicity, cell-based. The note with it: 288 h, time 12 day.
A further data set concerns MOLT-4. Description: Cytotoxicity against human MOLT-4 cells assessed as reduction in cell viability at 3 uM incubated for 12 days by CCK-8 assay. The data set is classed as toxicity, cell-based. The note with it: molt-4, 288 h, time 12 day. Background: Tetrazolium assays rely on reduction of a dye to a coloured formazan, in cell work by metabolically active cells.
The next data set deals with MT2. Description: Cytotoxicity against human MT2 cells assessed as reduction in cell viability at 3 uM incubated for 12 days by CCK-8 assay. The data set is classed as toxicity, cell-based. As to conditions: mt2, 288 h, time 12 day.

Broadly, the CC50 is the concentration giving 50% cytotoxicity. What is called EC50 is the concentration that produces a half-maximal response. Turning to `CC(C)(C)[C@H](NC(=O)C(F)(F)F)C(=O)N1C[C@H]2[C@@H]([C@H]1C(=O)N[C@@H](C[C@@H]1CCNC1=O)C(=O)c1nc3ccccc3s1)C2(C)C`, the CC50 at 72 h in data set [1] is above 100000 nM. In addition, a half-maximal response in the data set with SARS-CoV-2 [2] (EC50) required 15 nM. Also, the “fold change (FC)” value in the data set with SARS-CoV-2 [3] was determined as 0.071.

`COc1cccc2[nH]c(C(=O)N3C[C@H]4[C@@H]([C@H]3C(=O)N[C@@H](C[C@@H]3CCNC3=O)C(=O)c3nc5ccccc5s3)C4(C)C)cc12` yielded a CC50 at 72 h in data set [1] above 100000 nM. In the data set with SARS-CoV-2 [2], this molecule returned an EC50 of 2500 nM. Besides, the “fold change (FC)” value in the data set with SARS-CoV-2 [3] was 11.

Take `COc1ccc(F)c2[nH]c(C(=O)N[C@H](C(=S)N[C@@H](C[C@@H]3CCNC3=O)C(=O)c3nc4c(F)cccc4s3)C(C)(C)C)cc12`: in [1], the CC50 at 72 h is above 100000 nM. The “fold change (FC)” value in the data set with SARS-CoV-2 [4] was found to be 0.16. Besides, a half-maximal effect in the data set on SARS-CoV-2 [5] (EC50) was put at 340 nM.

`CC(C)(C)[C@H](NC(=O)C(F)(F)F)C(=O)N1C[C@H]2[C@@H]([C@H]1C(=O)N[C@@H](C[C@@H]1CCNC1=O)C(=O)c1nc3c(Br)cccc3s1)C2(C)C` yielded a CC50 at 72 h in data set [1] above 100000 nM. Further, in the data set on SARS-CoV-2 [2], the half-maximal effective concentration (EC50) was determined as 63 nM. For the same molecule, in the data set with SARS-CoV-2 [6], the “fold change (FC)” value is 2.9.

For `CC(C)(C)[C@H](NC(=O)C(F)(F)F)C(=O)N1C[C@H]2[C@@H]([C@H]1C(=O)N[C@@H](C[C@@H]1CCNC1=O)C(=O)c1nc3c(Cl)cccc3s1)C2(C)C`, the CC50 at 72 h in data set [1] is above 100000 nM. Also, the EC50 with SARS-CoV-2 [2] was 19 nM. The “fold change (FC)” value in the data set on SARS-CoV-2 [6] turned out to be 0.86.

On to `CC(C)(F)[C@H](NC(=O)C(F)(F)F)C(=O)N1C[C@H]2[C@@H]([C@H]1C(=O)N[C@@H](C[C@@H]1CCNC1=O)C(=O)c1nc3c(F)cccc3s1)C2(C)C`, for which the CC50 at 72 h in data set [1] was above 100000 nM. Moreover, it took 250 nM to reach a half-maximal effect in the data set on SARS-CoV-2 [2] (EC50). In addition, the “fold change (FC)” value in the data set with SARS-CoV-2 [6] turned out to be 21.

`COc1cccc2[nH]c(C(=O)N[C@H](C(=O)N[C@@H](C[C@@H]3CCNC3=O)C(=O)c3nc4ccccc4s3)C(C)(C)C)cc12` returned a CC50 at 72 h in data set [1] above 100000 nM. Further, the concentration giving a half-maximal response (EC50) in the data set with SARS-CoV-2 [5] was found to be 2200 nM.

Regarding `CC1(C)[C@@H]2[C@@H](C(=O)N[C@@H](C[C@@H]3CCNC3=O)C(=O)c3nc4c(F)cccc4s3)N(C(=O)c3cc4c(F)ccc(F)c4[nH]3)C[C@@H]21`, the CC50 at 72 h in [1] was above 100000 nM. Also, in the data set on SARS-CoV-2 [2], it took 750 nM to reach a half-maximal effect (EC50). Besides, in the data set with SARS-CoV-2 [3], the “fold change (FC)” value is given as 3.1.

The molecule `CC(C)(C)[C@H](NC(=O)C(F)(F)F)C(=O)NC1(C(=O)N[C@@H](C[C@@H]2CCNC2=O)C(=O)c2nc3c(F)cccc3s2)CCC(F)(F)C1` (some centres not stated) registered a half-maximal cytotoxic concentration (CC50) at 72 h in data set [1] above 100000 nM. This molecule also yielded a concentration for a half-maximal effect (EC50) with SARS-CoV-2 [2] of 2400 nM. In addition, in the data set with SARS-CoV-2 [6], the “fold change (FC)” value came to 90.

`COc1ccc(F)c2[nH]c(C(=O)N3C[C@H]4[C@@H]([C@H]3C(=O)N[C@@H](C[C@@H]3CCNC3=O)C(=O)c3nc5c(F)cccc5s3)C4(C)C)cc12` showed a CC50 at 72 h in data set [1] above 100000 nM. Further, a half-maximal response with SARS-CoV-2 [2] (EC50) required 560 nM. The “fold change (FC)” value with SARS-CoV-2 [3] was 2.7.

In data set [1], `CC(C)C[C@H](NC(=O)[C@@H](NC(=O)C(F)(F)F)C(C)(C)C)C(=O)N[C@@H](C[C@@H]1CCNC1=O)C(=O)c1nc2c(F)cccc2s1` had a CC50 at 72 h above 100000 nM. Further, in the data set with SARS-CoV-2 [2], the EC50 turned out to be 360 nM. For the same molecule, the “fold change (FC)” value with SARS-CoV-2 [3] came out at 1.

Consider `CC1(C)[C@@H]2[C@@H](C(=O)N[C@@H](C[C@@H]3CCNC3=O)C(=O)c3nc4c(F)cccc4s3)N(C(=O)[C@H](CCC(F)(F)F)NC(=O)C(F)(F)F)C[C@@H]21`, for which, in [1], the CC50 at 72 h is above 100000 nM. The same molecule displayed an EC50 in the data set with SARS-CoV-2 [2] of 590 nM. In the data set on SARS-CoV-2 [6], the “fold change (FC)” value was 14.

With `COc1ccc(F)c2[nH]c(C(=O)N[C@H](C(=O)N[C@@H](C[C@@H]3CCNC3=O)C(=O)c3nc4c(F)cccc4s3)C(C)(C)C)cc12`, the CC50 at 72 h in [1] is above 100000 nM. In addition, in the data set on SARS-CoV-2 [4], the “fold change (FC)” value turned out to be 0.13. The molecule further returned an EC50 in the data set on SARS-CoV-2 [5] of 290 nM.

In the case of `CC1(C)[C@@H]2[C@@H](C(=O)N[C@@H](C[C@@H]3CCNC3=O)C(=O)c3nc4c(F)cccc4s3)N(C(=O)[C@H](CC(F)(F)F)NC(=O)C(F)(F)F)C[C@@H]21`, the half-maximal cytotoxic concentration (CC50) at 72 h in data set [1] is above 100000 nM. Also, the EC50 with SARS-CoV-2 [2] turned out to be 2800 nM. For the same molecule, the “fold change (FC)” value in the data set on SARS-CoV-2 [6] was determined as 34.

On to `CC(C)(C)[C@H](NC(=O)C(F)(F)F)C(=O)N1C[C@@H]2CCC[C@@H]2[C@H]1C(=O)N[C@@H](C[C@@H]1CCNC1=O)C(=O)c1nc2c(F)cccc2s1`, for which the CC50 at 72 h in data set [1] was above 100000 nM. This molecule also registered an EC50 with SARS-CoV-2 [2] of 95 nM. The “fold change (FC)” value in the data set on SARS-CoV-2 [6] was determined as 1.6.

In the case of `CC(C)C(=O)OC[C@H]1O[C@@H](n2ccc(NO)nc2=O)[C@H](O)[C@@H]1O` [MOLNUPIRAVIR], the Activity result in the data set on PBMC was “Non-Toxic”; with MOLT-4 it was “Non-Toxic”; with MT2, “Toxic”.
